Measured values from US20250108038A1 (priority 2023, published 2025).
“And” between values parts separate entries of the source, which are not always exact repeats. Equal values may be shown once.

Tested on: Long Evans rats
Assay: Behavioral satiety sequence (BSS)
Format: in vivo, Long Evans rat
Description: The Behavioural Satiety Sequence (BSS) is a technique used to evaluate physiological satiety. It is based on the expression of a sequence of behaviors including eating, grooming, locomotor activity, followed by resting, which are typically observed in rodents post-ingestion (Halford et al, 1998, Pharmacology Biochemistry and Behaviour. 61(2): 159-168). The BSS is a widely used model for determining the effects of novel pharmaceuticals on food intake and measures of satiety in rodents (Oliveira et al, 2011, Revista de Nutrição. 24(4) 619-628), and to discriminate the cause of reduced food intake following pharmacological manipulation. For example, treatments that may reduce food intake by non-specific mechanisms, such as immobility, malaise, and taste adulteration, will disrupt this sequence (Halford et al, 1998, Pharmacology Biochemistry and Behaviour. 61(2): 159-168).
Specifically, 12 male Long-Evans rats were food-deprived for 22 h with a 2 h feeding period each day. Rats were trained to consume daily food during the 2 h period over 25 days. The testing phase was initiated once the rats consistently consumed 16-18 g of food per day with ≤10% variance in amount of feed consumed. Feeding took place in designated individual boxes in a quiet room separate from the housing room. Continuous remote monitoring via video camera during feeding was used to assess the BSS. Food consumption was measured by weighing the total available food before and after the 2 h feeding window, correcting for spillage. Lorcaserin (1 mg/kg) was included as a reference control (Higgins et al, 2011, Neuropsychopharmacology. 37(5): 1177-1191). Subjects were tested using a repeated-measures, Latin square design with 2-3 days wash-out between treatment cycles.
On scheduled test days, animals were monitored remotely via video camera during the feeding access period. The occurrence of four mutually exclusive behaviors (eating/drinking, grooming, active, rest) were individually scored. Over the 2 h feeding period, behaviors were assessed every 30 seconds. Scores were compiled into 23 5 min timebins (timebin 24 was removed due to early removal of animals) and the frequency of each behavior within each timebin was calculated to determine a temporal frequency of each measure (Rodgers et al, 2010, Pharmacology Biochemistry and Behaviour. 97: 3-14). Percentage time was plotted for each behavioral sequence in each timebin to compare between treatment groups (Higgins et al, 2011, Neuropsychopharmacology. 37(5): 1177-1191).

[1] = Compound I-19 3 mg/kg i.p., raw score per animal
[2] = Compound I-19 3 mg/kg, AVG of 12 animals
[3] = Compound I-19 3 mg/kg, raw score of individual animals LT-1 to LT-12
[4] = Compound I-19 i.p., first dose group after lorcaserin (dose not given), raw score per animal

In the case of Clc1ccc(C2(OCC3OCCO3)c3ccccc3C3=NCCN32)cc1 (stereo not shown) [Compound I-19], the “BSS scoring R (resting), Time Bin 4 (15-20 TOTAL)” value [1] is reported as 1 (2×) and 0 (10×), the “BSS scoring R (resting), Time Bin 5 (20-25 TOTAL)” value [1] is reported as 0 (10×) and 1 (2×) and the “BSS scoring R (resting), Time Bin 6 (25-30 TOTAL)” value [1] is reported as 0 (9×) and 1 and 2 (2×). For the same compound, the “BSS scoring A (active), Time Bin 13 (60-65 TOTAL), AVG” value [2] was 0.18, the “BSS scoring A (active), Time Bin 14 (65-70 TOTAL), AVG” value [2] was 0.15 and the “BSS scoring A (active), Time Bin 15 (70-75 TOTAL), AVG” value [2] was 0.28. The “BSS scoring A (active), Time Bin 16 (75-80 TOTAL), AVG” value [2] was 0.03, the “BSS scoring A (active), Time Bin 17 (80-85 TOTAL), AVG” value [2] was 0.18 and the “BSS scoring A (active), Time Bin 18 (85-90 TOTAL), AVG” value [2] was 0.12. The “BSS scoring E (eating/drinking), Time Bin 13 (60-65 TOTAL), AVG” value [2] was 0.72, the “BSS scoring E (eating/drinking), Time Bin 14 (65-70 TOTAL), AVG” value [2] was 0.63 and the “BSS scoring E (eating/drinking), Time Bin 15 (70-75 TOTAL), AVG” value [2] was 0.53. For the same compound, the “BSS scoring E (eating/drinking), Time Bin 16 (75-80 TOTAL), AVG” value [2] was 0.71, the “BSS scoring E (eating/drinking), Time Bin 17 (80-85 TOTAL), AVG” value [2] was 0.63 and the “BSS scoring E (eating/drinking), Time Bin 18 (85-90 TOTAL), AVG” value [2] was 0.65. For the same compound, the “BSS scoring G (grooming), Time Bin 13 (60-65 TOTAL), AVG” value [2] was 0.02, the “BSS scoring G (grooming), Time Bin 14 (65-70 TOTAL), AVG” value [2] was 0.02 and the “BSS scoring G (grooming), Time Bin 15 (70-75 TOTAL), AVG” value [2] was 0.06. For the same compound, the “BSS scoring G (grooming), Time Bin 16 (75-80 TOTAL), AVG” value [2] was 0.05, the “BSS scoring G (grooming), Time Bin 17 (80-85 TOTAL), AVG” value [2] was 0.03 and the “BSS scoring G (grooming), Time Bin 18 (85-90 TOTAL), AVG” value [2] was 0.07. For the same compound, the “BSS scoring R (resting), Time Bin 13 (60-65 TOTAL), AVG” value [2] was 0.09, the “BSS scoring R (resting), Time Bin 14 (65-70 TOTAL), AVG” value [2] was 0.21 and the “BSS scoring R (resting), Time Bin 15 (70-75 TOTAL), AVG” value [2] was 0.13. For the same compound, the “BSS scoring R (resting), Time Bin 16 (75-80 TOTAL), AVG” value [2] was 0.22, the “BSS scoring R (resting), Time Bin 17 (80-85 TOTAL), AVG” value [2] was 0.17 and the “BSS scoring R (resting), Time Bin 18 (85-90 TOTAL), AVG” value [2] was 0.17. For the same compound, the “BSS scoring A (active), Time Bin 13 (60-65 TOTAL)” value [3] was 3 and 0 (3×) and 2 (4×) and 1 (2×) and 4 (2×), the “BSS scoring A (active), Time Bin 14 (65-70 TOTAL)” value [3] was 8 and 0 (5×) and 1 (5×) and 5 and the “BSS scoring A (active), Time Bin 15 (70-75 TOTAL)” value [3] was 3 (2×) and 0 (5×) and 5 (3×) and 4 and 9. For the same compound, the “BSS scoring A (active), Time Bin 16 (75-80 TOTAL)” value [3] was 0 (10×) and 1 and 2, the “BSS scoring A (active), Time Bin 17 (80-85 TOTAL)” value [3] was 0 (6×) and 8 and 2 and 3 and 4 (2×) and 1 and the “BSS scoring A (active), Time Bin 18 (85-90 TOTAL)” value [3] was 0 (7×) and 2 and 3 (2×) and 1 and 5. The “BSS scoring E (eating/drinking), Time Bin 13 (60-65 TOTAL)” value [3] was 6 (3×) and 8 (4×) and 7 and 9 and 10 (2×) and 0, the “BSS scoring E (eating/drinking), Time Bin 14 (65-70 TOTAL)” value [3] was 2 (2×) and 8 (2×) and 9 (3×) and 10 and 3 (2×) and 7 and 5 and the “BSS scoring E (eating/drinking), Time Bin 15 (70-75 TOTAL)” value [3] was 7 (3×) and 9 and 8 and 5 (2×) and 0 (3×) and 6 and 10. For the same compound, the “BSS scoring E (eating/drinking), Time Bin 16 (75-80 TOTAL)” value [3] was 10 (4×) and 8 (3×) and 3 and 0 and 2 and 9 and 7, the “BSS scoring E (eating/drinking), Time Bin 17 (80-85 TOTAL)” value [3] was 7 and 2 and 8 and 10 (4×) and 0 (2×) and 3 and 6 and 9 and the “BSS scoring E (eating/drinking), Time Bin 18 (85-90 TOTAL)” value [3] was 10 (4×) and 8 (2×) and 5 (2×) and 0 (2×) and 9 and 3. The “BSS scoring G (grooming), Time Bin 13 (60-65 TOTAL)” value [3] was 1 (2×) and 0 (10×), the “BSS scoring G (grooming), Time Bin 14 (65-70 TOTAL)” value [3] was 0 (11×) and 2 and the “BSS scoring G (grooming), Time Bin 15 (70-75 TOTAL)” value [3] was 0 (8×) and 1 (3×) and 4. For the same compound, the “BSS scoring G (grooming), Time Bin 16 (75-80 TOTAL)” value [3] was 0 (8×) and 1 (3×) and 3, the “BSS scoring G (grooming), Time Bin 17 (80-85 TOTAL)” value [3] was 0 (10×) and 1 and 2 and the “BSS scoring G (grooming), Time Bin 18 (85-90 TOTAL)” value [3] was 0 (8×) and 4 and 1 (2×) and 2. The “BSS scoring R (resting), Time Bin 13 (60-65 TOTAL)” value [3] was 0 (8×) and 2 (2×) and 1 and 6, the “BSS scoring R (resting), Time Bin 14 (65-70 TOTAL)” value [3] was 0 (4×) and 2 (3×) and 1 (2×) and 6 and 7 and 4 and the “BSS scoring R (resting), Time Bin 15 (70-75 TOTAL)” value [3] was 0 (8×) and 2 and 5 (2×) and 3. For the same compound, the “BSS scoring R (resting), Time Bin 16 (75-80 TOTAL)” value [3] was 0 (4×) and 1 (4×) and 3 and 9 and 2 and 8, the “BSS scoring R (resting), Time Bin 17 (80-85 TOTAL)” value [3] was 3 (2×) and 0 (7×) and 1 and 8 and 5 and the “BSS scoring R (resting), Time Bin 18 (85-90 TOTAL)” value [3] was 0 (7×) and 2 (2×) and 6 and 9 and 1. For the same compound, the “effect on the behavioral satiety sequence (BSS)” value (Compound I-19 0.1-3 mg/kg IP, lorcaserin 1 mg/kg SC) was “did not affect the BSS compared to vehicle pretreatment”, the “BSS scoring A (active), Time Bin 7 (30-35 TOTAL)” value [4] was 2 and 0 and the “BSS scoring A (active), Time Bin 8 (35-40 TOTAL)” value [4] was 2 and 0. For the same compound, the “BSS scoring A (active), Time Bin 9 (40-45 TOTAL)” value [4] was 1 and 2, the “BSS scoring A (active), Time Bin 10 (45-50 TOTAL)” value [4] was 1 and the “BSS scoring A (active), Time Bin 11 (50-55 TOTAL)” value [4] was 1 and 0. The “BSS scoring A (active), Time Bin 12 (55-60 TOTAL)” value [4] was 1 and 2, the “BSS scoring E (eating/drinking), Time Bin 7 (30-35 TOTAL)” value [4] was 6 and 9 and the “BSS scoring E (eating/drinking), Time Bin 8 (35-40 TOTAL)” value [4] was 6 and 9. For the same compound, the “BSS scoring E (eating/drinking), Time Bin 9 (40-45 TOTAL)” value [4] was 9 and 6, the “BSS scoring E (eating/drinking), Time Bin 10 (45-50 TOTAL)” value [4] was 7 and the “BSS scoring E (eating/drinking), Time Bin 11 (50-55 TOTAL)” value [4] was 8 and 10. For the same compound, the “BSS scoring E (eating/drinking), Time Bin 12 (55-60 TOTAL)” value [4] was 5 and 8, the “BSS scoring G (grooming), Time Bin 7 (30-35 TOTAL)” value [4] was 0 and 1 and the “BSS scoring G (grooming), Time Bin 8 (35-40 TOTAL)” value [4] was 1. For the same compound, the “BSS scoring G (grooming), Time Bin 9 (40-45 TOTAL)” value [4] was 0 and 1, the “BSS scoring G (grooming), Time Bin 10 (45-50 TOTAL)” value [4] was 1 and the “BSS scoring G (grooming), Time Bin 11 (50-55 TOTAL)” value [4] was 0. The “BSS scoring G (grooming), Time Bin 12 (55-60 TOTAL)” value [4] was 1 and 0, the “BSS scoring R (resting), Time Bin 7 (30-35 TOTAL)” value [4] was 2 and 0 and the “BSS scoring R (resting), Time Bin 8 (35-40 TOTAL)” value [4] was 1 and 0. The “BSS scoring R (resting), Time Bin 9 (40-45 TOTAL)” value [4] was 0 and 1, the “BSS scoring R (resting), Time Bin 10 (45-50 TOTAL)” value [4] was 1 and the “BSS scoring R (resting), Time Bin 11 (50-55 TOTAL)” value [4] was 1 and 0. The “BSS scoring R (resting), Time Bin 12 (55-60 TOTAL)” value [4] was 3 and 0.
